Assay results reported in patent US4746678A, “Phenanthrene derivatives” (EGIS Gyoryszergyar, priority 1985, dated 1988).

Experiments:
wheat powdery mildew = test: in vivo test against wheat powdery mildew; design: species or system "MV-4" wheat (host plant); conditions: identical test conditions
Method: In vivo tests are carried out against cereals powdery mildew.
In vivo activity is tested against wheat powdery mildew in a phytobox of the Conviron type, at 20° C., a relative humidity of 90% and a light intensity of 9000 lux. As host plant the elite propagating seed grain material of officially qualified "MV-4" wheat species is used. Wheat plants are cultivated in 6 days' periods, in cultivating dishes (diameter 11 cm) containing a 1:1 mixture of sand and perlite. Each dish contains 160 plants; at the beginning of the treatment the plants were 5-6 cm high. High dispersity grade aqueous suspensions or acetonic solutions of the test compound are prepared and 8 ml of each suspension or solution, respectively, are applied onto the plants by means of a spraying apparatus operated by gaseous nitrogen. Inoculation is carried out 24 days after the fungicidal treatment. The test units are placed in three replicates and in random block arrangement in the phytotron. The rate of infectedness is determined on the 8th day after inoculation. Numerical evaluation is accomplished on the basis of the method described by Hinfner and Papp by observing separately 50-60 plants.
The results are expressed as ED50 and ED90 values of the test compounds being calculated from the co-relation of effect and concentration by means of mathematical-biometrical methods. […]

[1] = test system: bean rust (Uromyces apperdiculatus); test: in vivo test on "pinto" bean against bean rust; design: species or system "pinto" bean (host plant); conditions: spray at a concentration of 500 ppm; symptoms 7-8 days after infection
Method: A further test is carried out on "pinto" bean species against bean rust (Uromyces apperdiculatus). Into each cultivating dish three seeds are sown in a 1:1:0.035 mixture of sand, perlite and super compost. Two-leave staged bean plants subjected to 7-9 days' glass house pre-cultivation are treated with the test compound and the treated plants are inoculated. The concentration of the spore suspension amounts to 0.1 g/10 ml and 2.5 ml of spore suspension are used for each cultivating dish. After inoculation the plants are incubated at 20° C. under a relative moisture content of 100% for 48 hours. The symptoms manifest themselves 7-8 days after infection. Three replicates are used; untreated control treatment is also carried out and the commercial product "Dithane M 45" serves as reference.

Compound	activity relative to the most efficient novel compounds (products of Examples 7 and 8) (wheat powdery mildew)	inhibition of bean rust infection [1] [%]
C/C=C/C(=O)Oc1c(C(C)CCCCCC)cc([N+](=O)[O-])cc1[N+](=O)[O-] (stereo not shown) [6-(1-methyl-heptyl-2,4-dinitro-phenyl-crotonate)]	lower activity	–
CCCCNC(=O)ON=C1C(=O)c2ccccc2-c2ccccc21 [Example 7, 9,10-phenanthrene-dione-9-(n-butyl-aminocarbonyl)-oxime]	–	100
CNC(=O)ON=C1C(=O)c2ccccc2-c2ccccc21 [Example 8, 9,10-Phenanthrene-dione-9-(methylaminocarbonyl)-oxime]	–	100
CCCCNC(=O)n1c(NC(=O)OC)nc2ccccc21 [Reference compound, methyl-1-(n-butylcarbamoyl)-2-benzimidazole-carbamate]	lower activity	–
